For this experiment, the target named is T1, T. curvata BfaA (Thermomonospora curvata, UniProt D1ABB3).
T1 construct: gene Tcur_1573; native gene from genomic DNA (DSMZ), plasmid pNC964 (strain NS1164), crude E. coli cell-free extract
T1 sequence (D1ABB3 1-455): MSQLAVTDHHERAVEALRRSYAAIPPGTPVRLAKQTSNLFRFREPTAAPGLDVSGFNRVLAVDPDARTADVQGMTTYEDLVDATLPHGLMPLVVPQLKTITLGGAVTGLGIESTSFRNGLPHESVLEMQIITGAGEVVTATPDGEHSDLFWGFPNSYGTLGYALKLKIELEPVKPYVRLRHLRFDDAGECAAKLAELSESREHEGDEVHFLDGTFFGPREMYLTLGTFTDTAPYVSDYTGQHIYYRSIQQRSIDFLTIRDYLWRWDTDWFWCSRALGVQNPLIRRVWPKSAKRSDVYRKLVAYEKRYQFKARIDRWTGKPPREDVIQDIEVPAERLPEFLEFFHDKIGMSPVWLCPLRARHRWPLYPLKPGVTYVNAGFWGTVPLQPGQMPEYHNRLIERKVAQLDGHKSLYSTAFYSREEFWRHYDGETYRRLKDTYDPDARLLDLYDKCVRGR
As to the kind of experiment: crude extract assay, GC-FID of 10-methyl fatty acid. Conditions: 10 mM NADPH, 37 °C, 16 h; heat-inactivated BfaB lysate with 10-methylene acyl chains. It is filed as biochemical.

As for `NC(=O)C1=CN([C@@H]2O[C@H](COP(=O)(O)OP(=O)(O)OC[C@H]3O[C@@H](n4cnc5c(N)ncnc54)[C@H](OP(=O)(O)O)[C@@H]3O)[C@@H](O)[C@H]2O)C=CC1` [NADPH], the “crude extract assay, GC-FID of 10-methyl fatty acid” value was “We detected 10-methylstearic acid production in the presence of NADPH, but not NADH”.

These data come from PMC7791843, “Production of 10-methyl branched fatty acids in yeast” (Biotechnology for Biofuels, 2021).
